One data set relates to Human LAD2 cells. In words: Mast Cell Beta-Hexosaminidase Release Assay. Type of data set: cell-based. The conditions noted are these: 500 nM Cortistatin-14, read-out: MRGPRX2 Antagonist Activity. As for the experimental part: Human LAD2 cells (NIH) were maintained in an incubator at 37° C. with 5% CO2 and cultured in StemPro-34 serum-free media (Gibco 10639011) supplemented with 2 mM L-glutamine, 100 U/ml penicillin, […] streptomycin and 100 ng/ml SCF (Invitrogen PEP0860), at a concentration of 2-5×10^5 cells/mL, with hemidepletion every 1-2 weeks.
Cells were transferred to SCF-Free medium at 2.5×10^5 cells/mL and kept in an incubator overnight. On the day of the assay, cells were washed twice in Assay Buffer (final concentrations 10 mM HEPES, 137 mM NaCl, 5.6 mM D-glucose, 2.7 mM KCl, 1 mM MgCl, 1.8 mM CalCl2, 0.4 mM Na2HPO4·7H2O, 0.04% BSA, pH=7.4) and plated in a 96-well v-bottom plate at 20,000 cells per well in 80 μL Assay Buffer. Antagonist compounds solubilized at 10 mM in DMSO were diluted in Assay Buffer to 10× final desired concentrations as a 10-point curve (10 μM final top concentration with 1:3 serial dilutions) and 10 μL added per well. Plates were then incubated for 1 hour at 37° C. Agonists were diluted in Assay Buffer to 10× desired concentrations and 10 μL of the appropriate agonist added to each well. The final concentration of Cortistatin-14 (Tocris 3374) used in antagonist assays was 500 nM. Final concentrations of DMSO were kept consistent across the plate. Plates were then incubated in a warm air oven for 30 minutes at 37° C., followed by centrifugation at 4° C. for 5 minutes at 450×g. 50 μL supernatant from each well was then transferred to a 96-well flat bottom plate containing 100 μL substrate solution per well (3.5 mg/mL p-Nitrophenyl-N-acetyl-β-D-glucosaminide (Sigma 487052) in Citrate Buffer containing a final concentration of 40 mM Citric Acid, 20 mM Na2HPO4·7H2O, pH=4.5). To the cell pellets left in the remaining assay buffer, 150 μL 0.1% Triton-X-100 was then added to each well, resuspended by pipetting up and down, and 50 μL cell lysates transferred to a second 96-well flat bottom plate containing 100 μL substrate solution per well. Plates containing transferred supernatant and cell lysates were then incubated in a warm air oven for 90 minutes at 37° C. After incubation, 50 μL of 400 mM Glycine buffer (pH 10.7) was added into each well and the plate was read on a Molecular Devices SpectraMax iD5 plate reader (absorbance at 405 nm with reference filter at 620 nm). After background subtraction, the percentage degranulation (percent beta-hexosaminidase release) was calculated as 100×(supernatant values)/(supernatant+lysate values), followed by analysis using GraphPad Prism software to calculate an IC50 value for each compound.
The activity ranges are denoted as follows: “+++++” denotes antagonist activity <100 nM; “++++” denotes antagonist activity between 100 and 500 nM; “+++” denotes activity between 501 and 1000 nM; “++” denotes activity between 1001 and 2500 nM; and “+” denotes activity >2500 nM.

A short description of data set [1]: Mouse Pharmacokinetics Studies (50 mg/kg oral gavage, plasma LC-MS/MS). Type of data set: in vivo. The conditions noted are these: Male C57BL/6 mice, non-fasted; for AUC(0-t) / Cmax / Tmax: mouse; for Tmax: read-out: PK: Tmax. As for the experimental part:
Compounds were formulated in 5% DMSO, 5% Solutol, and 90% PBS without Ca and Mg (pH 7.4) at a concentration of 5 mg/mL. Male C57BL/6 mice (n=3/compound) were administered a 50 mg/kg dose of each compound by oral gavage under a non-fasted condition. Blood samples were collected via the saphenous vein onto K2-EDTA at 0.25, 0.5, 1, 2, 4, 8 and 24 hours after dosing, and plasma was prepared and stored at −80° C. until analysis. Plasma sample preparation for analysis was done by protein precipitation using acetonitrile (including Verapamil as an internal standard) followed by centrifugation. Compound concentrations were determined in extracted plasma using LC-MS/MS relative to a 12-point standard curve covering the 1 to 4000 nM range. Non-compartmental analysis using Phoenix WinNonlin was used to estimate pharmacokinetic parameters including area under the curve, clearance, and half-life. The administered dose was confirmed by analysis of residual dosing material by UPLC-UV relative to a single point calibration sample.

For another data set, the target named is T1, human MRGPRX2 (Homo sapiens, UniProt Q96LB1).
T1 construct: expressed in transfected cells
T1 sequence (Q96LB1 1-330): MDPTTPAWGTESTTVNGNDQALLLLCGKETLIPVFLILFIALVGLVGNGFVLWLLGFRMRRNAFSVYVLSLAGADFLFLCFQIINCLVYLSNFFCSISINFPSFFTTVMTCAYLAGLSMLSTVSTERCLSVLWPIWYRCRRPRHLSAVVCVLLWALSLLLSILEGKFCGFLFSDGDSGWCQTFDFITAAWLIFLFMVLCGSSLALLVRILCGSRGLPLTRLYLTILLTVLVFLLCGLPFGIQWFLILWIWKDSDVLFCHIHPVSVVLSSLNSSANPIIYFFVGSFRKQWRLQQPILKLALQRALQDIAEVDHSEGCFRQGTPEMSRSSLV
In words: MRGPRX2 activity: IP-One HTRF antagonist assay in CHO cells versus Cortistatin-14. The conditions noted are these: CHO cells stably expressing human MRGPRX2; versus 0.3 uM Cortistatin-14 agonist; IP-1 HTRF. The class given is cell-based. How it is done:
CHO cells stably transfected to express human MRGPRX2 were maintained in an incubator at 37° C. with 5% CO2 and grown in F12 (HAM) media with 10% fetal bovine serum (FBS), 1% Glutamax, 1% penicillin/streptomycin, 800 μg/mL Geneticin (G418), and 300 μg/mL Hygromycin B.
Cells were plated in a 384-well assay plate at 20,000 cells per well in 12 μL of Opti-MEM and kept in an incubator overnight. On the day of the assay, compounds solubilized at 10 mM in DMSO were added as a 10-point curve (30 uM final top concentration with 1:3 serial dilutions) using a Tecan D300E digital dispenser. Agonists were diluted in assay buffer (final concentrations of 5.7 mM Tris-HCl, 43 mM NaCl, 50 mM LiCl, pH=8) and 2 μL of the agonist Cortistatin-14 (CPC Scientific, catalog CORT-002) are added to each well. Final concentrations of agonists were 0.3 μM Cortistatin. Final concentrations of DMSO were kept consistent across the plate. Plates were incubated in the dark for 1 h at 37° C. and then for 1 h at room temperature. IP-1 standards and HTRF detection reagents were added according to the IP-One-Gq Kit purchased from Cisbio (part number 62IPAPEJ) and incubated in the dark for 1 h at room temperature. The plate was read on a Molecular Devices SpectraMax iD5 plate reader. The HTRF ratio was calculated from the raw data and graphed using GraphPad Prism to calculate an IC50 value for each compound.
The activity ranges are denoted as follows: “+++++” denotes antagonist activity <100 nM; “++++” denotes antagonist activity between 100 and 500 nM; “+++” denotes activity between 501 and 1000 nM; “[…]” denotes activity between 1001 and 2500 nM; and “+” denotes activity >2500 nM
For orientation: In TR-FRET formats the signal depends on donor and acceptor labels being close together.

pIC50: −log10 of the molar value. Where only a bound is given, the exact number is not on record here.

These results are taken from patent publication US12129244B2, “Modulators of Mas-related G-protein receptor X2 and related products and methods” (Escient Pharmaceuticals, Inc., priority 2022, dated 2024).

As a reminder, the AUC(0-t) is exposure summed from dosing to a finite time, without extrapolation to infinity. A word on the Cmax: it is the maximum level reached in the sampled fluid or tissue. What is called Tmax is the time at which the peak concentration occurs.

Consider `O=C(N[C@@H]1CCC[C@H](Nc2cc(C(F)(F)F)nc3ccc(Cl)cc23)C1)c1ccc(F)nc1` [4-411], for which the pIC50 in the data set on Human LAD2 cells is above 7.00.
On to `COc1ccc(C(=O)N[C@@H]2CCC[C@H](Nc3cc(C(F)(F)F)nc4ccc(F)cc34)C2)cc1` [Example 1-4], for which, in data set [1], the “AUC 0-24” value came out at 120 µM·h, the AUC(0-t) stood at 120 µM·h, the highest concentration (Cmax) came out at 8.6 µM and the time of peak concentration (Tmax) was 6.7 h.
The compound `Nc1ccc(C(=O)N[C@@H]2CCC[C@H](Nc3cc(C(F)(F)F)nc4ccc(Cl)cc34)C2)cn1` [Example 3-19] gave a pIC50 at human MRGPRX2 above 7.00. Further, in data set [1], the “AUC 0-24” value came to 220 µM·h, the AUC(0-t) was found to be 220 µM·h, the Cmax was determined as 46 µM and the time to peak (Tmax) is 0.83 h.
As to `CCS(=O)(=O)Nc1cccc(C(=O)N[C@@H]2CCC[C@H](Nc3cc(C(F)(F)F)nc4ccc(Cl)cc34)C2)c1` [Example 4-241], the pIC50 in the data set with Human LAD2 cells was above 7.00.
`CCn1cc(C(=O)N[C@@H]2CCC[C@H](Nc3cc(C(F)(F)F)nc4ccc(Cl)cc34)C2)cn1` [Example 4-366]: in data set [1], the “AUC 0-24” value worked out at 290 µM·h, the exposure AUC(0-t) amounted to 290 µM·h, the concentration peaked (Cmax) at 44 µM and the Tmax came to 1 h.
As to `O=C(N[C@@H]1CCC[C@H](Nc2cc(C(F)(F)F)nc3ccc(Cl)cc23)C1)c1cnn(C(F)F)c1` [Example 4-399], in data set [1], the “AUC 0-24” value was 230 µM·h, the AUC(0-t) came to 230 µM·h, the maximum concentration (Cmax) amounted to 19 µM and the Tmax is 3.7 h.
`Cc1nn(C(C)C)cc1C(=O)N[C@@H]1CCC[C@H](Nc2cc(C(F)(F)F)nc3ccc(Cl)cc23)C1` [Example 4-402] showed a pIC50 on human MRGPRX2 above 7.00. Also, in data set [1], the “AUC 0-24” value amounted to 150 µM·h, the AUC(0-t) came out at 150 µM·h, the highest level (Cmax) was 14 µM and the Tmax was 2 h.
`Cc1ccc(C(=O)N[C@@H]2CCC[C@H](Nc3cc(C(F)(F)F)nc4ccc(Cl)cc34)C2)cn1` [Example 4-403]: at human MRGPRX2, the pIC50 was above 7.00. Moreover, in data set [1], the “AUC 0-24” value is 130 µM·h, the AUC(0-t) stood at 130 µM·h, the Cmax was 15 µM and the time to peak (Tmax) amounted to 2.3 h.
`Nc1ncccc1C(=O)N[C@@H]1CCC[C@H](Nc2cc(C(F)(F)F)nc3ccc(Cl)cc23)C1` [Example 4-409] showed a pIC50 at human MRGPRX2 above 7.00. Further, in data set [1], the “AUC 0-24” value amounted to 280 µM·h, the AUC(0-t) turned out to be 280 µM·h, the highest concentration (Cmax) is 25 µM and the Tmax was 2.7 h.
In the case of `CCc1[nH]ccc1C(=O)N[C@@H]1CCC[C@H](Nc2cc(C(F)(F)F)nc3ccc(Cl)cc23)C1` [Example 4-427], the pIC50 at human MRGPRX2 is above 7.00.
With `CCn1ncc(C(=O)N[C@@H]2CCC[C@H](Nc3cc(C(F)(F)F)nc4ccc(Cl)cc34)C2)c1C` [Example 4-452], the pIC50 on human MRGPRX2 was above 7.00.
`Cc1nn(CC(F)(F)F)cc1C(=O)N[C@@H]1CCC[C@H](Nc2cc(C(F)(F)F)nc3ccc(Cl)cc23)C1` [Example 4-464]: the pIC50 on human MRGPRX2 was above 7.00.
In the case of `O=C(N[C@@H]1CCC[C@H](Nc2cc(C(F)(F)F)nc3ccc(Cl)cc23)C1)c1cnn(C2CCCCC2)c1` [Example 4-487], the pIC50 at human MRGPRX2 was above 7.00.
`O=C(N[C@@H]1CCC[C@H](Nc2cc(C(F)(F)F)nc3ccc(Cl)cc23)C1)c1c[nH]nc1C(F)F` [Example 4-511] showed a pIC50 at human MRGPRX2 above 7.00.
Consider `Cc1c(C(=O)N[C@@H]2CCC[C@H](Nc3cc(C(F)(F)F)nc4ccc(Cl)cc34)C2)ccn1CCF` [Example 5-1], for which the pIC50 on human MRGPRX2 was above 7.00.
On the same count and under the same terms, with `Cc1c(C(=O)N[C@@H]2CCC[C@H](Nc3cc(C(F)(F)F)nc4ccc(Cl)cc34)C2)ccn1CC(F)F` [Example 5-5] the figure was above 7.00.
As to `CC(C)(C)OC(=O)N1CCC[C@@H](n2cc(C(=O)N[C@@H]3CCC[C@H](Nc4cc(C(F)(F)F)nc5ccc(Cl)cc45)C3)cn2)C1` [Example 5-13], the pIC50 at human MRGPRX2 was above 7.00.
In the case of `N#Cc1nn(CCF)cc1C(=O)N[C@@H]1CCC[C@H](Nc2cc(C(F)(F)F)nc3ccc(Cl)cc23)C1` [Example 5-31], at human MRGPRX2, the pIC50 is above 7.00.
As to `O=C(N[C@@H]1CCC[C@H](Nc2cc(C(F)(F)F)nc3ccc(Cl)cc23)C1)N1CCCC1` [Example 8-3], the pIC50 at human MRGPRX2 was above 7.00.
The same measure, in the same setting: with `Cn1cc2c(n1)CCN(C(=O)N[C@@H]1CCC[C@H](Nc3cc(C(F)(F)F)nc4ccc(Cl)cc34)C1)C2` [Example 8-16] the figure was above 7.00; with `Cc1c(C(=O)N[C@@H]2CCC[C@H](Nc3cc(C(F)(F)F)nc4ccc(Cl)cc34)C2)cnn1C1CCNCC1` [Example 19, N-((1R,3S)-3-((6-chloro-2-(trifluoromethyl)quinolin-4-yl)amino)cyclohexyl)-5-methyl-1-(piperidin-4-yl)-1H-pyrazole-4-carboxamide], above 7.00; with `CC(C)(C)OC(=O)N1CC[C@@H](n2cc(C(=O)N[C@@H]3CCC[C@H](Nc4cc(C(F)(F)F)nc5ccc(Cl)cc45)C3)cn2)C1` [Example 40, tert-butyl (R)-3-(4-(((1R,3S)-3-((6-chloro-2-(trifluoromethyl)quinolin-4-yl)amino)cyclohexyl)carbamoyl)-1H-pyrazol-1-yl)pyrrolidine-1-carboxylate], above 7.00.
The same measure, in the same setting: with `Cc1nc2c(s1)CN(C(=O)N[C@@H]1CCC[C@H](Nc3cc(C(F)(F)F)nc4ccc(Cl)cc34)C1)CC2` [Example 46, N-((1R,3S)-3-((6-chloro-2-(trifluoromethyl)quinolin-4-yl)amino)cyclohexyl)-2-methyl-6,7-dihydrothiazolo[5,4-c]pyridine-5(4H)-carboxamide] the figure was above 7.00.
